Laboratory results as given in patent US20250282749A1 (Tango Therapeutics, Inc., priority 2022, published 2025).

Experiments:
Assay type in all cases: cell-based
[1] = tested on: HAP1 MTAP-deleted cell line; experiment: viability assay for the MTAP-deleted cell line; conditions: Homo sapiens
[2] = tested on: PRMT5 (SDMA) in HAP1 MTAP-deleted cell line; experiment: SDMA in-cell western assay, HAP1 MTAP-deleted cell line; conditions: for IC50 / IC90: Homo sapiens, SDMA in-cell western, HAP1 MTAP-deleted (MTAP-null) cell line; for Hap1 MTAP intact/deleted ratio: ratio of SDMA in-cell western IC50 in HAP1 MTAP-intact to IC50 in HAP1 MTAP-deleted cell line
Text: (§1) HAP1 MTAP-intact is a cell line in which endogenous levels of MTAP are expressed, and HAP1 MTAP-deleted is an MTAP-null cell line.

[3] = tested on: PRMT5 (SDMA) in HAP1 MTAP-intact cell line; experiment: SDMA in-cell western assay, HAP1 MTAP-intact cell line; conditions: Homo sapiens, HAP1 MTAP-intact cell line (endogenous MTAP), read-out: Hap 1 MTAP intact IC50
Text: as §1

Structure (SMILES)	IC50 [2]	IC90 [2]	IC50 [3]	IC50 [1]	Hap1 MTAP intact/deleted ratio [2]
C[C@@H]1CN(C(=O)C(=O)Nc2cnc(N)c(C3CC3)c2)[C@@H](c2ccc(F)cc2)CN1C(=O)C1(C)CC1 [Compound 8, N-(6-amino-5-cyclopropylpyridin-3-yl)-2-((2S,5R)-2-(4-fluorophenyl)-5-methyl-4-(1-methylcyclopropanecarbonyl)piperazin-1-yl)-2-oxoacetamide]	< 5 nM	< 75 nM	5 to 50 nM	< 100 nM	C (an IC50 ratio of less than 15 fold)
CCc1cc(NC(=O)C(=O)N2C[C@@H](C)N(C(=O)C3(C)CC3)C[C@@H]2c2ccc(N3CCN(C)CC3)cc2)cnc1N [Compound 105, N-(6-amino-5-ethylpyridin-3-yl)-2-((2S,5R)-5-methyl-4-(1-methylcyclopropanecarbonyl)-2-(4-(4-methylpiperazin-1-yl)phenyl)piperazin-1-yl)-2-oxoacetamide]	< 5 nM	< 75 nM	> 50 nM	< 100 nM	B (an IC50 ratio greater than or equal to 15 fold but lower than 30 fold)
C[C@@H]1CN(C(=O)C(=O)Nc2cnc(N)c(C3CC3)c2)[C@@H](c2ccccc2)CN1C(=O)C(C)(C)C [Compound 97, N-(6-amino-5-cyclopropylpyridin-3-yl)-2-((2S,5R)-5-methyl-2-phenyl-4-pivaloylpiperazin-1-yl)-2-oxoacetamide]	< 5 nM	< 75 nM	5 to 50 nM	< 100 nM	C (an IC50 ratio of less than 15 fold)
C[C@@H]1CN(C(=O)C(=O)Nc2cncc3cn[nH]c23)[C@@H](c2ccccc2)CN1C(=O)C1(C)CC1 [Compound 91, 2-((2S,5R)-5-methyl-4-(1-methylcyclopropanecarbonyl)-2-phenylpiperazin-1-yl)-2-oxo-N-(1H-pyrazolo[4,3-c]pyridin-7-yl)acetamide]	5 to 50 nM	> 125 nM	> 50 nM	< 100 nM	B (an IC50 ratio greater than or equal to 15 fold but lower than 30 fold)
C[C@@H]1CN(C(=O)C(=O)Nc2cncc3cn[nH]c23)[C@@H](c2ccccc2)CN1C(=O)OC(C)(C)C [Compound 35, tert-butyl (2R,5S)-2-methyl-4-[2-oxo-2-(1H-pyrazolo[4,3-c]pyridin-7-ylamino)acetyl]-5-phenyl-piperazine-1-carboxylate]	5 to 50 nM	> 125 nM	> 50 nM	< 100 nM	A (an IC50 ratio greater than or equal to 30 fold)
Cc1cc(NC(=O)C(=O)N2C[C@@H](C)N(C(=O)C(C)(C)C)C[C@@H]2c2ccccc2)cnc1N [Compound 99, N-(6-amino-5-methylpyridin-3-yl)-2-((2S,5R)-5-methyl-2-phenyl-4-pivaloylpiperazin-1-yl)-2-oxoacetamide]	< 5 nM	< 75 nM	5 to 50 nM	< 100 nM	C (an IC50 ratio of less than 15 fold)
CCc1cc(NC(=O)C(=O)N2C[C@H](C)N(C(=O)CC3CC3)C[C@H]2c2ccc(F)cc2)cnc1N [Compound 73, N-(6-amino-5-ethyl-3-pyridyl)-2-[(2R,5S)-4-(2-cyclopropylacetyl)-2-(4-fluorophenyl)-5-methyl-piperazin-1-yl]-2-oxo-acetamide]	5 to 50 nM	75 to 125 nM	> 50 nM	< 100 nM	B (an IC50 ratio greater than or equal to 15 fold but lower than 30 fold)
CC(C)CN1C[C@@H](c2ccc(F)cc2)N(C(=O)C(=O)Nc2cnc(N)c(C3CC3)c2)C[C@H]1C (single isomer, unassigned) [Compound 84]	5 to 50 nM	< 75 nM	> 50 nM	< 100 nM	A (an IC50 ratio greater than or equal to 30 fold)
C[C@@H]1CN(C(=O)C(=O)Nc2cncc3cn[nH]c23)[C@@H](c2ccccc2)CN1C(=O)C1(C(F)(F)F)CC1 [Compound 100, 2-((2S,5R)-5-methyl-2-phenyl-4-(1-(trifluoromethyl)cyclopropanecarbonyl)piperazin-1-yl)-2-oxo-N-(1H-pyrazolo[4,3-c]pyridin-7-yl)acetamide]	5 to 50 nM	> 125 nM	> 50 nM	< 100 nM	C (an IC50 ratio of less than 15 fold)
C[C@@H]1CN(C(=O)C(=O)Nc2cnc(N)c3cn[nH]c23)[C@@H](c2cccc(Cl)c2)CN1C [Compound 18]	< 5 nM	< 75 nM	> 50 nM	< 100 nM	A (an IC50 ratio greater than or equal to 30 fold)
Cc1cc(NC(=O)C(=O)N2C[C@@H](C)N(C(=O)C3(C(F)(F)F)CC3)C[C@@H]2c2ccccc2)cnc1N [Compound 78, N-(6-amino-5-methylpyridin-3-yl)-2-((2S,5R)-5-methyl-2-phenyl-4-(1-(trifluoromethyl)cyclopropanecarbonyl)piperazin-1-yl)-2-oxoacetamide]	5 to 50 nM	> 125 nM	> 50 nM	< 100 nM	B (an IC50 ratio greater than or equal to 15 fold but lower than 30 fold)
Cc1cc(NC(=O)C(=O)N2C[C@@H](C)N(C(=O)C(C)C)C[C@@H]2c2cccc(Cl)c2)cnc1N [Compound 90, N-(6-amino-5-methylpyridin-3-yl)-2-((2S,5R)-2-(3-chlorophenyl)-4-isobutyryl-5-methylpiperazin-1-yl)-2-oxoacetamide]	5 to 50 nM	> 125 nM	> 50 nM	< 100 nM	B (an IC50 ratio greater than or equal to 15 fold but lower than 30 fold)

Continued, in another order:

IC50 [2]	IC90 [2]	IC50 [3]	Structure (SMILES)	IC50 [1]	Hap1 MTAP intact/deleted ratio [2]
> 50 nM	> 125 nM	> 50 nM	CC(C)C(=O)N1C[C@@H](c2ccc(F)cc2)N(C(=O)C(=O)Nc2cnc(N)c(C3CC3)c2)C[C@@H]1C [Compound 115, N-(6-amino-5-cyclopropyl-3-pyridyl)-2-[(2R,5S)-2-(4-fluorophenyl)-5-methyl-4-(2-methylpropanoyl)piperazin-1-yl]-2-oxo-acetamide]	> 1000 nM	C (an IC50 ratio of less than 15 fold)
5 to 50 nM	> 125 nM	> 50 nM	Cc1cc(NC(=O)C(=O)N2C[C@@H](C)N(C(=O)C3(C)CC3)C[C@@H]2c2ccccc2)cnc1N [Compound 143, N-(6-amino-5-methylpyridin-3-yl)-2-((2S,5R)-5-methyl-4-(1-methylcyclopropanecarbonyl)-2-phenylpiperazin-1-yl)-2-oxoacetamide]	< 100 nM	C (an IC50 ratio of less than 15 fold)
< 5 nM		5 to 50 nM	C[C@@H]1CN(C(=O)C(=O)Nc2cnc(N)c3cn[nH]c23)[C@@H](c2ccccc2)CN1C1CC1 (racemic) [Compound 170, N-(4-Amino-1H-pyrazolo[4,3-c]pyridin-7-yl)-2-oxo-2-[rac-(2S,5R)-4-cyclopropyl-5-methyl-2-phenyl-piperazin-1-yl]acetamide]	< 100 nM	C (an IC50 ratio of less than 15 fold)
< 5 nM		5 to 50 nM	C[C@@H]1CN(C(=O)C(=O)Nc2cnc(N)c3cn[nH]c23)[C@@H](c2ccccc2)CN1C1CCC1 (racemic) [Compound 163, N-(4-Amino-2H-pyrazolo[4,3-c]pyridin-7-yl)-2-oxo-2-[rac-(2S,5R)-4-cyclobutyl-5-methyl-2-phenyl-piperazin-1-yl]acetamide]	< 100 nM	C (an IC50 ratio of less than 15 fold)
< 5 nM	75 to 125 nM	> 50 nM	C[C@@H]1CN(C(=O)C(=O)Nc2cnc(N)c3cn[nH]c23)[C@@H](c2ccc(F)cc2)CN1C [Compound 135]	100 to 1000 nM	A (an IC50 ratio greater than or equal to 30 fold)
< 5 nM	75 to 125 nM	5 to 50 nM	C[C@@H]1CN(C(=O)C(=O)Nc2cnc(N)c(C3CC3)c2)[C@@H](c2ccc(F)cc2)CN1C(=O)C(C)(C)C [Compound 152, N-(6-amino-5-cyclopropylpyridin-3-yl)-2-((2S,5R)-2-(4-fluorophenyl)-5-methyl-4-pivaloylpiperazin-1-yl)-2-oxoacetamide]	< 100 nM	C (an IC50 ratio of less than 15 fold)
< 5 nM	< 75 nM	> 50 nM	C[C@@H]1CN(C(=O)C(=O)Nc2cnc(N)c(C3CC3)c2)[C@@H](c2ccc(F)cc2)CN1C(=O)OC(C)(C)C (stereo in doubt) [Compound 144, tert-butyl 4-(2-((6-amino-5-cyclopropylpyridin-3-yl)amino)-2-oxoacetyl)-5-(4-fluorophenyl)-2-methylpiperazine-1-carboxylate]	< 100 nM	B (an IC50 ratio greater than or equal to 15 fold but lower than 30 fold)
5 to 50 nM	75 to 125 nM	> 50 nM	C[C@@H]1CN(C(=O)C(=O)Nc2cnc(N)c(C3CC3)c2)[C@@H](c2ccc(F)cc2)CN1C(=O)C1(C(F)(F)F)CC1 [Compound 112, N-(6-amino-5-cyclopropylpyridin-3-yl)-2-((2S,5R)-2-(4-fluorophenyl)-5-methyl-4-(1-(trifluoromethyl)cyclopropanecarbonyl)piperazin-1-yl)-2-oxoacetamide]	< 100 nM	C (an IC50 ratio of less than 15 fold)
5 to 50 nM	> 125 nM	5 to 50 nM	Cc1cc(NC(=O)C(=O)N2C[C@@H](C)N(C(=O)C(C)(C)CN3CCN(C)CC3)C[C@@H]2c2ccccc2)cnc1N [Compound 134]	< 100 nM	C (an IC50 ratio of less than 15 fold)
